Broadly, the inhibition is the relative decrease from the control value, in per cent.

The target of the assay is T1, CYP17 (human testicular microsome) (Homo sapiens, UniProt P05093).
T1 construct: using microsomal fraction from human testis (Celsis Cat #S00110) as the enzyme source; tissue Celsis S00110; host or cells: human testis microsomal fraction
T1 sequence (P05093 1-508): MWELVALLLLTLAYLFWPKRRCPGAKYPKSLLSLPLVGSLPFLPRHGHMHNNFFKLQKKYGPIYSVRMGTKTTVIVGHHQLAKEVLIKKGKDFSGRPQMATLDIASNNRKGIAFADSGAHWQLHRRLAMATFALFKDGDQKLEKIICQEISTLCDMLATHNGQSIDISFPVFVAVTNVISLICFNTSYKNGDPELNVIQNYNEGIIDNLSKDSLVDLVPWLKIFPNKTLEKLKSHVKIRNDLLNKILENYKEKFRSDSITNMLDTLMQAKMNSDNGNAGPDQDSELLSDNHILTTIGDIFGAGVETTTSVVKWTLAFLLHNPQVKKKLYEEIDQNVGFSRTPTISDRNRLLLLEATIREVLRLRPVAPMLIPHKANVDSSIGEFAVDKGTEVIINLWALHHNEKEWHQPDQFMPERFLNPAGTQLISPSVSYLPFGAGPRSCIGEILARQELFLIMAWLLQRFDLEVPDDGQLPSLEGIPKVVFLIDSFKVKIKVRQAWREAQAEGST
Nature of the assay: CYP17 enzymatic assay (% inhibition at 1 nM) (Biological Example 12). Format: biochemical.

Where [1] appears, read: test compound at 1 nM, read-out: CYP17 enzymatic assay percent inhibition at 1 nM (Biological Example No. 12).
Where [2] appears, read: compound at 1 nM, read-out: CYP17 enzymatic assay % inhibition at 1 nM (Biological Example No. 12).
Setting [3] is: compound at 1 nM, read-out: Biological Example No. 12: CYP17 enzymatic assay % inhibition at 1 nM.

Like-named read-outs stand apart in the source and are kept apart here. Where only a bound is given, the exact number is not on record here.

As for `C[C@@]1(O)CC[C@@]2(C)C(=CCC3C2CC[C@]2(C)C(c4cccnc4)=CCC32)C1` (stereo partly drawn) [Compound 267, (3R,10R,13S)-3,10,13-trimethyl-17-(pyridin-3-yl)-2,3,4,7,8,9,10,11,12,13,14,15-dodecahydro-1H-cyclopenta[a]phenanthren-3-ol], the inhibition at 0.001 µM under setting [1] is greater than 50%.
On to `CO[C@H]1CC[C@@]2(C)[C@@H](CC[C@@H]3[C@@H]2CC[C@]2(C)C(c4cnccc4C)=CC[C@@H]32)C1` [Compound 458, 3-((3S,5S,8R,9S,10S,13S,14S)-3-methoxy-10,13-dimethyl-2,3,4,5,6,7,8,9,10,11,12,13,14,15-tetradecahydro-1H-cyclopenta[a]phenanthren-17-yl)-4-methylpyridine], for which the inhibition at 0.001 µM under setting [2] was 10 to 50%.
The same measure, in the same setting: the figure for `CCNC(=O)O[C@H]1CC[C@@]2(C)C(=CC[C@H]3C4=CC=C(c5cccnc5)[C@@]4(C)CC[C@@H]32)C1` [Compound 202, (3S,10R,13S)-10,13-dimethyl-17-(pyridin-3-yl)-2,3,4,7,8,9,10,11,12,13-decahydro-1H-cyclopenta[a]phenanthren-3-yl ethylcarbamate] is less than 10%; for `C[C@]12CC[C@H]3[C@@H](CC(Nc4nccs4)C45CC4CC[C@]35C)[C@@H]1CC=C2c1cccnc1` (stereo partly drawn) [Compound 251, N-((3aR,5aS)-3a,5a-dimethyl-6-(pyridin-3-yl)-1,1a,2,3,3a,3b,4,5,5a,8,8a,8b,9,10-tetradecahydrocyclopenta[a]cyclopropa[2,3]cyclopenta[1,2-f]naphthalen-10-yl)thiazol-2-amine] it is 10 to 50%.
In the case of `CC1C[C@@]2(C)C(CC[C@@H]3[C@@H]2CC[C@]2(C)C(c4cccnc4)=CC[C@@H]32)C(C)C1=O` (stereo partly drawn) [Compound 415, (10R,13S)-2,4,10,13-tetramethyl-17-(pyridin-3-yl)-4,5,6,7,8,9,10,11,12,13,14,15-dodecahydro-1H-cyclopenta[a]phenanthren-3(2H)-one], the inhibition at 0.001 µM under setting [3] is less than 10%.
For `CNC1CC[C@@]2(C)C(CCC3C2CC[C@]2(C)C(c4cncc(C)c4)=CCC32)C1` (stereo partly drawn) [Compound 210, (10S,13S)-N,10,13-trimethyl-17-(5-methylpyridin-3-yl)-2,3,4,5,6,7,8,9,10,11,12,13,14,15-tetradecahydro-1H-cyclopenta[a]phenanthren-3-amine], the inhibition at 0.001 µM under setting [2] lay within 10 to 50%.
Take `CN1C(=O)CC[C@@]2(C)C1=CCC1C2CC[C@]2(C)C(c3cncc(C(F)F)c3)=CCC12` (stereo partly drawn) [Compound 429, (4aR,6aS)-7-(5-(difluoromethyl)pyridin-3-yl)-1,4a,6a-trimethyl-4,4a,4b,5,6,6a,9,9a,9b,10-decahydro-1H-indeno[5,4-f]quinolin-2(3H)-one]: the inhibition at 0.001 µM under setting [3] is less than 10%.
For `C[C@]12CCC3C(CC=C4C[C@@H](OC(=O)c5ccccc5)CC[C@@]43C)C1=CC=C2c1cccnc1` (stereo partly drawn) [Compound 194, (3S,10R,13S)-10,13-dimethyl-17-(pyridin-3-yl)-2,3,4,7,8,9,10,11,12,13-decahydro-1H-cyclopenta[a]phenanthren-3-yl benzoate], the inhibition at 0.001 µM under setting [1] fell in the range of 10 to 50%.
With `C[C@]12CC[C@H]3[C@@H](CC=C4C[C@@H](O)CC[C@@]43C)C1=CC=C2c1cncc(Cl)c1` [Compound 273, (3S,10R,13S)-17-(5-chloropyridin-3-yl)-10,13-dimethyl-2,3,4,7,8,9,10,11,12,13-decahydro-1H-cyclopenta[a]phenanthren-3-ol], the inhibition at 0.001 µM under setting [3] fell in the range of 10 to 50%.
`Cc1ccncc1C1=CC=C2C3CCC4CC(=O)NCC[C@]4(C)C3CC[C@]12C` (stereo partly drawn) [Compound 463, (5aS,7aS)-5a,7a-dimethyl-8-(4-methylpyridin-3-yl)-3,4,5,5a,5b,6,7,7a,10b,11,12,12a-dodecahydrocyclopenta[5,6]naphtho[1,2-d]azepin-2(1H)-one]: the inhibition at 0.001 µM under setting [2] is 10 to 50%.
For the molecule `C[C@]12CC[C@H]3[C@@H](CCC45CC4C(O)CC[C@]35C)[C@@H]1CC=C2c1cncc(F)c1` (stereo partly drawn) [Compound 412, (4aR,6aS)-7-(5-fluoropyridin-3-yl)-4a,6a-dimethyl-1a,2,3,4,4a,4b,5,6,6a,9,9a,9b,10,11-tetradecahydro-1H-cyclopenta[a]cyclopropa[j]phenanthren-2-ol], the inhibition at 0.001 µM under setting [3] is 10 to 50%.
`CC(C)(C)NC(=O)O[C@H]1CC[C@@]2(C)C(=CC[C@H]3C4=CC=C(c5cccnc5)[C@@]4(C)CC[C@@H]32)C1` [Compound 203, (3S,10R,13S)-10,13-dimethyl-17-(pyridin-3-yl)-2,3,4,7,8,9,10,11,12,13-decahydro-1H-cyclopenta[a]phenanthren-3-yl tert-butylcarbamate]: the inhibition at 0.001 µM under setting [2] lay in the range of 10 to 50%.
For `C[C@]12CC[C@H]3[C@@H](CC=C4C[C@@H](OC(=O)Nc5cccnc5)CC[C@@]43C)C1=CC=C2c1cccnc1` [Compound 204, (3S,10R,13S)-10,13-dimethyl-17-(pyridin-3-yl)-2,3,4,7,8,9,10,11,12,13-decahydro-1H-cyclopenta[a]phenanthren-3-yl pyridin-3-ylcarbamate], the inhibition at 0.001 µM under setting [3] was in the range of 10 to 50%.
For `Cc1ccncc1C(=O)O[C@H]1CC[C@@]2(C)C(=CC[C@H]3C4=CC=C(c5cccnc5)[C@@]4(C)CC[C@@H]32)C1` [Compound 205, (3S,10R,13S)-10,13-dimethyl-17-(pyridin-3-yl)-2,3,4,7,8,9,10,11,12,13-decahydro-1H-cyclopenta[a]phenanthren-3-yl 4-methylnicotinate], the inhibition at 0.001 µM under setting [3] lay within 10 to 50%.
Same read-out and setting: the figure for `C[C@]12CC[C@H](O)CC1=CCC1C2CC[C@]2(C)C(c3cncc(NS(C)(=O)=O)c3)=CCC12` (stereo partly drawn) [Compound 284, N-(5-((3S,10R,13S)-3-hydroxy-10,13-dimethyl-2,3,4,7,8,9,10,11,12,13,14,15-dodecahydro-1H-cyclopenta[a]phenanthren-17-yl)pyridin-3-yl)methanesulfonamide] is less than 10%.
With `CC1(O)CC2CC[C@@H]3[C@H](CC[C@]4(C)C(c5cccnc5)=CC[C@@H]34)[C@@]2(C)C1` (stereo partly drawn) [Compound 400, (3aS,5aS)-2,3a,5a-trimethyl-6-(pyridin-3-yl)-1,2,3,3a,3b,4,5,5a,8,8a,8b,9,10,10a-tetradecahydrodicyclopenta[a,f]naphthalen-2-ol], under setting [1], the inhibition at 0.001 µM was in the range of 10 to 50%.
As for `CCNC(=O)N[C@@H]1CC[C@@]2(C)C(=CCC3C2CC[C@]2(C)C(c4cncc(F)c4)=CCC32)C1` (stereo partly drawn) [Compound 478, 1-ethyl-3-((3R,10R,13S)-17-(5-fluoropyridin-3-yl)-10,13-dimethyl-2,3,4,7,8,9,10,11,12,13,14,15-dodecahydro-1H-cyclopenta[a]phenanthren-3-yl)urea], the inhibition at 0.001 µM under setting [3] fell in the range of 10 to 50%.
As to `C[C@]12CC[C@@H](NS(C)(=O)=O)CC1=CCC1C2CC[C@]2(C)C(c3cccnc3)=CCC12` (stereo partly drawn) [Compound 225, N-((3R,10R,13S)-10,13-dimethyl-17-(pyridin-3-yl)-2,3,4,7,8,9,10,11,12,13,14,15-dodecahydro-1H-cyclopenta[a]phenanthren-3-yl)methanesulfonamide], under setting [2], the inhibition at 0.001 µM was in the range of 10 to 50%.
On the same count and under the same terms, the figure for `CCNC(=S)N[C@@H]1CC[C@@]2(C)C(=CC[C@@H]3[C@@H]2CC[C@]2(C)C(c4cccnc4)=CC[C@@H]32)C1` [Compound 233, 1-((3R,10R,13S)-10,13-dimethyl-17-(pyridin-3-yl)-2,3,4,7,8,9,10,11,12,13,14,15-dodecahydro-1H-cyclopenta[a]phenanthren-3-yl)-3-ethylthiourea] is 10 to 50%; for `CCc1ccncc1C1=CC=C2C3CCC4CC(=O)NCC[C@]4(C)C3CC[C@]12C` (stereo partly drawn) [Compound 467, (5aS,7aS)-8-(4-ethylpyridin-3-yl)-5a,7a-dimethyl-3,4,5,5a,5b,6,7,7a,10b,11,12,12a-dodecahydrocyclopenta[5,6]naphtho[1,2-d]azepin-2(1H)-one] it is 10 to 50%; for `Cc1ccncc1C1=CC=C2C3CCC4CNC(=O)CC[C@]4(C)C3CC[C@]12C` (stereo partly drawn) [Compound 464, (5aR,7aS)-5a,7a-dimethyl-8-(4-methylpyridin-3-yl)-1,2,5,5a,5b,6,7,7a,10b,11,12,12a-dodecahydrocyclopenta[5,6]naphtho[2,1-c]azepin-3(4H)-one] it is 10 to 50%.
As for `C[C@]1(O)CC[C@@]2(C)C(CCC3C2CC[C@]2(C)C(c4cncc(Cl)c4)=CCC32)C1` (stereo partly drawn) [Compound 265, (3S,10S,13S)-17-(5-chloropyridin-3-yl)-3,10,13-trimethyl-2,3,4,5,6,7,8,9,10,11,12,13,14,15-tetradecahydro-1H-cyclopenta[a]phenanthren-3-ol], the inhibition at 0.001 µM under setting [3] is less than 10%.
In the case of `CC(C)(C)C(=O)N[C@@H]1CC[C@@]2(C)C(CCC3C2CC[C@]2(C)C(c4cccnc4)=CCC32)C1` (stereo partly drawn) [Compound 218, N-((3R,10S,13S)-10,13-dimethyl-17-(pyridin-3-yl)-2,3,4,5,6,7,8,9,10,11,12,13,14,15-tetradecahydro-1H-cyclopenta[a]phenanthren-3-yl)pivalamide], the inhibition at 0.001 µM under setting [1] lay in the range of 10 to 50%.

For the origin of these results see patent US20130252930A1 (BIOMARIN PHARMACEUTICAL INC., priority 2010, published 2013).
